Here are results for 10 compounds from US8765786B2, “1-substituted indazole derivative” (Dainippon Sumitomo Pharma Co., Ltd., priority 2012, dated 2014).

One data set relates to Slc: ddY mice. As to the kind of experiment: Novel object recognition test in mice (mORT). Format: in vivo. The following applies: for minimum effective dose: administered prior to 1st trial, 2nd trial 24 hours later; for efficacy at higher doses: dose of 0.3 mg/kg, 1.0 mg/kg or 3 mg/kg. The protocol:
Slc: ddY mice (25 g to 30 g, male, Japan SLC) can be used in the novel object recognition test wherein the interval between the 1st trial (training) and the 2nd trial (test) correlates with the memory loss for the objects used in the 1st trial, and a significant memory-loss is observed when the 2nd trial is performed 24 hours after the 1st trial. According to the test mechanism, the present compounds were administered prior to the 1st trial, and the enhancement effect on memory in the 2nd trial was evaluated.

The next data set deals with T1, human α7 nAChR (Homo sapiens, UniProt P36544).
T1 construct: expressed in transfected cells; host or cells: GH4C1 cells derived from rat pituitary (ATCC CCL-82.2)
T1 sequence (P36544 23-502): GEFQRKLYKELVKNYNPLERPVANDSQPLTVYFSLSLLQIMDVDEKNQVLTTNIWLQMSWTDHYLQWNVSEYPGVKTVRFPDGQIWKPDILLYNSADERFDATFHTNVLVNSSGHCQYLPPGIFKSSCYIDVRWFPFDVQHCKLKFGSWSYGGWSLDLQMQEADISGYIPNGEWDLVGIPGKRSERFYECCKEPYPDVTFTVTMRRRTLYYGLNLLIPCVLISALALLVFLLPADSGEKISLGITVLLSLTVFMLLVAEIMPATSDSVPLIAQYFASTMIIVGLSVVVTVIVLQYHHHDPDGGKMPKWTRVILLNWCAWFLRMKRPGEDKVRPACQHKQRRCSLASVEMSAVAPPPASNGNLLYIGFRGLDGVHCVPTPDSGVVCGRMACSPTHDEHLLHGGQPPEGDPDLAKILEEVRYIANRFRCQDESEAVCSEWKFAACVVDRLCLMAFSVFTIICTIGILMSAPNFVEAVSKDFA
As to the kind of experiment: Evaluation of PAM activity with human α7 nACh receptor stably expressing cells (aequorin luminescence, FDSS7000). The following applies: test compound 10 μmol/L, ACh added at EC20, ratio of RLU (Max-Min) of test wells to control wells; for activity at 10 µM: read-out: α7PAM (%) @ 10 μmol/L. Format: cell-based. The procedure, abridged: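 Rat pituitary GH4C1 cells stably expressing human α7 nAChR and aequorin, loaded 4 h at room temperature with 4 μmol/L substrate, in Hanks/20 mM HEPES pH 7.4. After compound then ACh addition, 465 nm luminescence recorded 138 s; PAM activity is RLU (Max-Min) ratio to control wells.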

The target in data set [1] is T2, hERG (human ether-a-go-go) potassium current (Homo sapiens, UniProt Q12809).
T2 construct: expressed in transfected cells; host or cells: CHO cells
T2 sequence (Q12809 whole entry): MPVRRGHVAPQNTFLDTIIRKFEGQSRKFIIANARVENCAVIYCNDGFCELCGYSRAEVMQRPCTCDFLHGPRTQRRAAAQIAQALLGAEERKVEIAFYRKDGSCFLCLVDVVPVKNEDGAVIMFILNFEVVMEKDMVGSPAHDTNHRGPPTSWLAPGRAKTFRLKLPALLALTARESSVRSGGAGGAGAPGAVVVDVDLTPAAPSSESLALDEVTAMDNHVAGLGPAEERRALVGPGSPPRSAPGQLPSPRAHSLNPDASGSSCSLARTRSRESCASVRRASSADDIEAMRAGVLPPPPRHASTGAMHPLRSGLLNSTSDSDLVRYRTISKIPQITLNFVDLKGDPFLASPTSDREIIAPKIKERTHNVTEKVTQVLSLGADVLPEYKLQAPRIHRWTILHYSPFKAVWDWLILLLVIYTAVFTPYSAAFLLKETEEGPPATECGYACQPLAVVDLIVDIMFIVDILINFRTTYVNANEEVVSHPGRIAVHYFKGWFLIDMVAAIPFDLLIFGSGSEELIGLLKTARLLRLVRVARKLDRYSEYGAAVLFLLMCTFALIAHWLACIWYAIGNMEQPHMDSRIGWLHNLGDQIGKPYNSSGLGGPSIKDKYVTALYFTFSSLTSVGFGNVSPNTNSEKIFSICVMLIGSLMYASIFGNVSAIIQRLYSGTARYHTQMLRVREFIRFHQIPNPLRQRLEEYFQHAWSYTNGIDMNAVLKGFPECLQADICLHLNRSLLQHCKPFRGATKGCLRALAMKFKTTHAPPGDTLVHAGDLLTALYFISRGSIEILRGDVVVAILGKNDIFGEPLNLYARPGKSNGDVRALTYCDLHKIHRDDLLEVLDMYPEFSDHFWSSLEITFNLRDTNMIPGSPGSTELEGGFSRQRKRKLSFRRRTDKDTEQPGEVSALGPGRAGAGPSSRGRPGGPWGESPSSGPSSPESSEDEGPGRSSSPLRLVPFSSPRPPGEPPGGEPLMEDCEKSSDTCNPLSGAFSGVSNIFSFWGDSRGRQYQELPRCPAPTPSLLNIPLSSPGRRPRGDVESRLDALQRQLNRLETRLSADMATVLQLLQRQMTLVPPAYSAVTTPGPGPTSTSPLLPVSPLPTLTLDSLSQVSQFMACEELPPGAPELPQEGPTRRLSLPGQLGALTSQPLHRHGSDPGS
As to the kind of experiment: hERG inhibition test (whole-cell patch clamp, QPatch HT, CHO cells). Format: cell-based. The conditions noted are these: room temperature. The protocol: The hERG (human ether-a-go-go) potassium current in CHO cells which stably express hERG gene was recorded by whole-cell patch clamping technique using an automated patch clamp system, QPatch HT (Sophion Bioscience A/S). Inducing the hERG current, the membrane potential was held at −80 mV in voltage clamp mode, and then depolarized to −50 mV for 20 msec and then +20 mV for 5 sec. Then, the membrane potential was repolarized to −50 mV for 5 sec and the tail current amplitude was measured. The stimulation was given at a frequency of every 15 seconds, and the experiment was carried out at room temperature (22±2° C.) The compound was cumulatively administered to each cell in 4 concentrations, wherein the administration was done over 5 minutes in each concentration. The inhibition percentage of the inhibited current was calculated by comparing the current intensities before and after the compound was given in each concentration. According to Hill equation, each 50% inhibitory concentration was calculated (IC50 [μmol/L]). The test solutions used herein were as follows: extracellular solution (mmol/L): 2 CaCl2, 1 MgCl2, 10 HEPES, 4 KCl, 145 NaCl, 10 glucose,
intracellular solution (mmol/L): […], 1.8 MgCl2, 10 HEPES, 31 KOH, 10 EGTA, 120 KCl, 4 ATP
(In general: The hERG channel carries a current that helps repolarise heart muscle cells.)

A further data set concerns Slc: Wistar rats. The experiment in a line: Y-shaped maze test in rats, scopolamine-induced cognitive impairment. The conditions noted are these: 0.6 mg/kg scopolamine HBr s.c. Format: in vivo. The protocol: In Y-maze test, 0.6 mg/kg scopolamine HBr (cat#S0929, Sigma Aldrich, Japan) can be subcutaneously administered to Slc: Wistar rats (280 g to 300 g, male, Japan SLC) to cause cognitive impairment and decrease the percentage of alternation behavior. According to the test mechanism, the present compounds were treated prior to the administration of scopolamine, and the improvement effect on cognitive impairment was evaluated.

Data set [2] in a line: Measurement of brain penetration. Format: in vivo. The conditions noted are these: LC-MS/MS of plasma and brain homogenates; for Kp: read-out: concentration ratio of the brain to the plasma. The text has this:
The plasma and brain homogenates were deproteinized with methanol and then centrifuged. The supernatant was filtered, and the obtained sample was quantified with LC-MS/MS to calculate the concentration of the plasma and brain.

A short description of data set [3]: Measurement of protein binding ratio (equilibrium dialysis). It counts as in vitro ADME, human. (In equilibrium dialysis only unbound substance equilibrates across the membrane.)
A further data set can be described thus: Rat PK test. The following applies: plasma, rats, intravenous and oral administration. It counts as in vivo. Here is the method:
The present compound was administered intravenously in saline solution or orally in methylcellulose solution to 7 weeks old rats, and their blood was collected according to the following schedule:
(intravenous administration) 5 minutes, 15 minutes, 30 minutes, 1 hour, 2 hours, 4 hours, 6 hours and 24 hours after the administration
(oral administration) 15 minutes, 30 minutes, 1 hour, 2 hours, 4 hours, 6 hours and 24 hours after the administration
The collected blood was centrifuged at 3000 rpm for 10 minutes in a refrigerated centrifuge set at 4° C. The obtained plasma was measured with a HPLC to give a time curve of plasma level, thereby calculating the pharmacokinetic parameters.

Consider `CCc1cccc2c1cnn2C1CCN(C(=O)N[C@H]2CC[C@H](OC)CC2)CC1` [Example 66, 4-(4-ethyl-1H-indazol-1-yl)-N-(trans-4-methoxycyclohexyl)piperidine-1-carboxamide], for which, in the data set on Slc: ddY mice, the “dose at which efficacy was shown” value came to 1 mg/kg. Moreover, the activity at 10 µM on human α7 nAChR was 466%.

One may read the IC50 as the concentration needed to halve the response being measured. With `CO[C@H]1CC[C@H](NC(=O)N2CCC(n3ncc4cc(C5CC5)ccc43)CC2)CC1` [Example 74, 4-(5-cyclopropyl-1H-indazol-1-yl)-N-(trans-4-methoxycyclohexyl)piperidine-1-carboxamide], the IC50 in data set [1] was found to be 13.2 µM. Also, in the data set with Slc: ddY mice, the minimum effective dose stood at 0.1 mg/kg and the “efficacy at higher doses” value was “efficacy did not decrease”. Besides, the “dose from which cognitive function was significantly improved” value in the data set with Slc: Wistar rats is listed as 0.3 mg/kg.

`CCc1ccc2c(c1)c(OC(C)C)nn2C1CCN(C(=O)NC2CCOCC2)CC1` [Example 63, 4-(5-ethyl-3-isopropoxy-1H-indazol-1-yl)-N-(tetrahydro-2H-pyran-4-yl)piperidine-1-carboxamide] registered an IC50 in data set [1] above 10 µM. Moreover, the “dose at which efficacy was shown” value in the data set with Slc: ddY mice came to 3 mg/kg. Besides, the activity at 10 µM at human α7 nAChR was 358%. In the data set on Slc: Wistar rats, the “dose from which a tendency to improve cognitive function was shown” value was determined as 0.3 mg/kg.

As a reminder, the bioavailability is the share of a dose that reaches the circulation, judged against a reference dose that is usually intravenous. A lower bioavailability goes with poor availability. With `CO[C@H]1CC[C@H](NC(=O)N2CCC(n3ncc4cc(C)ccc43)CC2)CC1` [Example 1, N-(trans-4-methoxycyclohexyl)-4-(5-methyl-1H-indazol-1-yl)piperidine-1-carboxamide], the Kp in data set [2] was found to be 1.27. Further, it took 84.3 µM to reach half-maximal inhibition in data set [1] (IC50). In the data set on Slc: ddY mice, the minimum effective dose turned out to be 0.1 mg/kg and the “efficacy at higher doses” value was “efficacy did not decrease”. The “protein binding ratio in the brain” value in data set [3] (brain) was 91.9%. The “protein binding ratio in the plasma” value in data set [3] (plasma) came out at 84.7%. The bioavailability in the data set “Rat PK test” worked out at 41%. For the same compound, the “dose from which cognitive function was significantly improved” value in the data set with Slc: Wistar rats came out at 0.3 mg/kg.

As to `CO[C@H]1CC[C@H](NC(=O)N2CCC(n3ncc4cc(C(F)(F)F)ccc43)CC2)CC1` [Example 163, N-(trans-4-methoxycyclohexyl)-4-[5-(trifluoromethyl)-1H-indazol-1-yl]piperidine-1-carboxamide], in data set [2], the Kp is 2.01. The activity at 10 µM at human α7 nAChR was determined as 318%. This compound registered a bioavailability in the data set “Rat PK test” of 41%.

`O=C(NC1CCOCC1)N1CCC(n2ncc3cc(OC(F)(F)F)ccc32)CC1` [Example 227, N-(tetrahydro-2H-pyran-4-yl)-4-[5-(trifluoromethoxy)-1H-indazol-1-yl]piperidine-1-carboxamide]: in data set [2], the Kp was found to be 1.92. Besides, the activity at 10 µM on human α7 nAChR amounted to 768%. In the data set “Rat PK test”, this compound displayed a bioavailability of 69%.

`COc1nn(C2CCN(C(=O)NC3CCCCC3)CC2)c2ccc(C)cc12` [Example 258]: the “concentration ratio of the brain to the plasma” value in data set [2] came out at 1.55. The compound further had a concentration for half-maximal inhibition (IC50) in data set [1] of 47.3 µM. The “α7PAM (%) @ 10 μmol/L” value on human α7 nAChR was determined as 941%.

Turning to `CCc1ccc2c(cnn2[C@H]2CC[C@@H](NC(=O)C3CCCC3)CC2)c1` [Example 123], the “α7PAM (%) @ 10 μmol/L” value at human α7 nAChR turned out to be 1445%.

Regarding `Cc1ccc2c(c1)c(C1CCOCC1)nn2C1CCN(C(=O)NC2CCC(F)(F)CC2)CC1` [Example 52, N-(4,4-difluorocyclohexyl)-4-(5-methyl-3-(tetrahydro-2H-pyran-4-yl)-1H-indazol-1-yl)piperidine-1-carboxamide], at human α7 nAChR, the activity at 10 µM was 366%.

Turning to `CCOc1nn(C2CCN(C(=O)NC3CCC(F)(F)CC3)CC2)c2ccc(CC)cc12` [Example 61], the “α7PAM (%) @ 10 μmol/L” value at human α7 nAChR was determined as 1092%.
